Reference: patent US10709724B2, “Methods of treating mitochondrial dysfunction” (Ecole Polytechnique Federale de Lausanne (EPFL), priority 2011, dated 2020)

System: SIRT3
Assay: NR in SIRT3−/− mouse embryonic fibroblasts
Type: cell-based
Conditions: 0.5 mM, 24 hrs
Method: Cell Culture, Transfection, Adenoviral Infection and Mitochondrial Characterization. HEK293T, MEF and C2C12 cells were cultured in DMEM (4.5 g/l glucose, 10% FCS). PARP-1^+/+ and PARP-1^−/− MEFs were prepared as described in (Menissier-de Murcia et al., 1997). SIRT1 and MEFs were kindly provided by Fred Alt (Chea et al., 2005). SIRT3 MER were established according to standard techniques from conditional SERT3^−/− mice. […] Mitochondrial charge determination was performed as described (Bai et al., 2001) and DNA strand breaks were quantified by TUNEL assays according to the manufacturer's instructions (Millipore).
Immunoprecipitation, SDS-PAGE, Western Blotting. […] Reactions were developed by enhanced chemiluminescence (Amersham, Little Chalfont, UK), PGC-1α, FOXO1 and Ndufa9 acetylation levels were analyzed by immunoprecipitation from cellular or nuclear lysates of tissues with anti-PGC-1α (Millipore), anti-FOXO1 (Cell Signaling, Danvers, Mass., USA) and anti-Ndufa9 (Abcam) antibody followed by Western blot using an acetyl-lysine antibody (Cell Signaling) that was normalized to total PGC-1a/FOXO1/Ndufa9 levels (Lagouge et al., 2006; Rodgers et al., 2005). […] All blots were quantified by densitometry using ImageJ software. […]

NC(=O)c1ccc[n+]([C@@H]2O[C@H](CO)[C@@H](O)[C@H]2O)c1 [NR, nicotinamide riboside]
NAD+ levels in SIRT3−/− MEFs: increased to similar levels as in SIRT3^+/+ MEFs
acetylation status of SOD2 in SIRT3−/− MEFs: unable to decrease the acetylation status of SOD2
